The text below walks through data of US20220153751A1, “BIFUNCTIONAL COMPOUNDS” (BioTheryX, Inc., priority 2018, published 2022).

Broadly, the Dmax is the greatest extent of degradation seen. The inhibition is the percentage by which the read-out fell short of the control. By viability is commonly meant the share of living cells, or the viability signal relative to a control.

Structures are written as SMILES.

What all share (assay type): cell-based
The target of one test is T1, IKAROS (Homo sapiens, UniProt Q13422+Q96SW2).
T1 construct: endogenous in cells; host or cells: MV-4-11
T1 sequence (Q13422 whole entry): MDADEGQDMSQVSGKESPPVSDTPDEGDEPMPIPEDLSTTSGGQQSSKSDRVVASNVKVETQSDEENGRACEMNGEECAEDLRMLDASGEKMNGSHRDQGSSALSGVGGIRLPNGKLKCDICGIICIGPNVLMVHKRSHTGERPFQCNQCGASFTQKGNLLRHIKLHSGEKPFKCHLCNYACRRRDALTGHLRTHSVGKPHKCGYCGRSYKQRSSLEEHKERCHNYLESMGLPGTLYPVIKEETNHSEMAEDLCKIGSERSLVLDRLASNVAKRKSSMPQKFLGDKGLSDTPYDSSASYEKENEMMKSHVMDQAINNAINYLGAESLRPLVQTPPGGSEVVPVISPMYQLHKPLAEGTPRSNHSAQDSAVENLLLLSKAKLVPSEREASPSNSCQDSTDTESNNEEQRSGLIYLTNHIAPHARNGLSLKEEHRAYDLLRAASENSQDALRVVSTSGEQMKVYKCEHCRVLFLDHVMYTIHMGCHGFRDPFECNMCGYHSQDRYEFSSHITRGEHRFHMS
T1 sequence (Q96SW2 whole entry): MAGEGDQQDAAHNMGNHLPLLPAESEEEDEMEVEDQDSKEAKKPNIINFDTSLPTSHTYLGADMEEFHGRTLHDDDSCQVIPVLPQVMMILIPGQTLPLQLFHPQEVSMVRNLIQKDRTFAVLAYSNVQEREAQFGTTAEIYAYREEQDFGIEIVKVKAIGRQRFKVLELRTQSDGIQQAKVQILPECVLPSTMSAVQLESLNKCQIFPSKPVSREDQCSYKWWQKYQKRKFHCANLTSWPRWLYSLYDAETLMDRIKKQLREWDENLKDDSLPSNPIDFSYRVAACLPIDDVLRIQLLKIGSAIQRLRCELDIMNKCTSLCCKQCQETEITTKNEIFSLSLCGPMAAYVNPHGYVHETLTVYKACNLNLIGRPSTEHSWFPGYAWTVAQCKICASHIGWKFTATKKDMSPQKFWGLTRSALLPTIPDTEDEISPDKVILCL
T1 sequence (Q16531 whole entry partner): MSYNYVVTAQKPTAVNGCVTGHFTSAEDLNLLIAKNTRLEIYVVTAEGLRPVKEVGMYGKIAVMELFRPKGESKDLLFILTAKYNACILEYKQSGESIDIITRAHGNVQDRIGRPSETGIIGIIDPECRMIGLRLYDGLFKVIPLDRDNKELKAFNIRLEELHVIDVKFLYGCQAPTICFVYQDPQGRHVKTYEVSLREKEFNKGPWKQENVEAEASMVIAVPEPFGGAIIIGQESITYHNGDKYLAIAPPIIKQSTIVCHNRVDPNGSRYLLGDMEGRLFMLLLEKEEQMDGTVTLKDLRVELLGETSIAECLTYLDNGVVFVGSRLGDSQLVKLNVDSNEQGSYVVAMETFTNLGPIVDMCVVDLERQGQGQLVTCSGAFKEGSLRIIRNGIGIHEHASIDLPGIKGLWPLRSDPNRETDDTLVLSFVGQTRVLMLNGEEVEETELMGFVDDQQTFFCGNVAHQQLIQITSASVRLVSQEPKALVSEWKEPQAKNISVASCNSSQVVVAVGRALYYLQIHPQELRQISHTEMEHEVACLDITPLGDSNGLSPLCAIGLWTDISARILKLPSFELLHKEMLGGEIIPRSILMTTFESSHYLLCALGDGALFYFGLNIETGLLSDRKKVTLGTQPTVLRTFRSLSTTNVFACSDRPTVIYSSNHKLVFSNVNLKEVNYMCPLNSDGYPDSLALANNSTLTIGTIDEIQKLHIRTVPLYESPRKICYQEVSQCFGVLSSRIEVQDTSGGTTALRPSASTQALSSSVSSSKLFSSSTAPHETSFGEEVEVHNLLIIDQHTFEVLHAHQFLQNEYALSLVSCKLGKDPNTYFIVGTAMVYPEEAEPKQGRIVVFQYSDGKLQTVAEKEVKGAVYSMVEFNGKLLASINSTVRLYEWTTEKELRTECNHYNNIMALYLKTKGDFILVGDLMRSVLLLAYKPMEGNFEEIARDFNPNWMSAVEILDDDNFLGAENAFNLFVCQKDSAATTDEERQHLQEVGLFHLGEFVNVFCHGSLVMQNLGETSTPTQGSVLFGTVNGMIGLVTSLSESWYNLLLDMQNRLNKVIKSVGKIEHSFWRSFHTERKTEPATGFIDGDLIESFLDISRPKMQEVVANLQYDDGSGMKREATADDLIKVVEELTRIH
The test can be described thus: IKAROS degradation assay (Western blot, MV-4-11 cells). Particulars: MV4-11, 6-8 h. How it is done:
(§1) MV-4-11 cells were grown in RPMI 1640 media supplemented with 10% fetal bovine serum, streptomycin and penicillin.
(§2) Cells were cultured at approximately 10^6 cells per mL and incubated in DMSO or the indicated compound for 6-8 h. Whole cell extracts were prepared using RIPA buffer according to manufacturer's protocol (Pierce). Briefly, 3×10^6 cells were washed once in PBS, the cell pellets were resuspended in RIPA buffer and allowed to incubate for 15 minutes on ice. Cells debris was removed by centrifugation and the cleared whole cell lysates were transferred to new tubes for further analysis.
(§3) For Western blot analysis, whole cell protein extracts were separated on 4-12% SDS-polyacrylamide gels, transferred to nitrocellulose and probed with the indicated primary antibodies. Membranes were subsequently washed and probed with the appropriate IRDye secondary antibodies (LI-COR). The signal was detected using the Odyssey Imaging System (LI-COR).
(§4) The following antibodies were used in these studies: Anti-eRF3/GSPT1: Abcam, ab126090 (Cambridge, Mass.); Anti-Ikaros: Abcam, ab191394 (Cambridge, Mass.); Anti-CK1α: Abcam, ab108296 (Cambridge, Mass.); Anti-CDK9: Santa Cruz Biotechnology, sc13130 (Dallas, Tex.); Anti-CDK16: Millipore Sigma, HPA001366 (St. Louis, Mo.); 3-actin (8H10comD10) mouse monoclonal antibody: Cell Signaling Technology, #3700 (Danvers, Mass.); IRDye 680RD Goat anti-rabbit antibody: LI-COR, 926-68071 (Lincoln, Nebr.); IRDye 800CW Goat anti-mouse antibody: LI-COR, 926-32210 (Lincoln, Nebr.).
(§5) CDK9 activities are shown in Table 4 at two different concentrations. CDK16 activities are shown in Table 5 at two different concentrations. In each of Tables 1-5, the % degradation values are reported as “A”, “B”, “C”, or “D”. “A” represents a % degradation value of less than 25% (value <25%). “B” represents a % degradation value of equal to or more than 25% and less than 50% (25%≤value<50%). “C” represents a % degradation value of equal to or more than 50% and less than 75% (50%≤value<75%). “D” represents a % degradation value of equal to or more than 75% (value ≥75%).
In general terms: In western blotting, separated proteins are transferred to a membrane and probed.

The target in another test is T2, GSPT1 (Homo sapiens, UniProt P15170+Q96SW2).
T2 construct: Whole cell extracts were prepared using RIPA buffer; endogenous in cells; host or cells: MV-4-11
T2 sequence (P15170 whole entry): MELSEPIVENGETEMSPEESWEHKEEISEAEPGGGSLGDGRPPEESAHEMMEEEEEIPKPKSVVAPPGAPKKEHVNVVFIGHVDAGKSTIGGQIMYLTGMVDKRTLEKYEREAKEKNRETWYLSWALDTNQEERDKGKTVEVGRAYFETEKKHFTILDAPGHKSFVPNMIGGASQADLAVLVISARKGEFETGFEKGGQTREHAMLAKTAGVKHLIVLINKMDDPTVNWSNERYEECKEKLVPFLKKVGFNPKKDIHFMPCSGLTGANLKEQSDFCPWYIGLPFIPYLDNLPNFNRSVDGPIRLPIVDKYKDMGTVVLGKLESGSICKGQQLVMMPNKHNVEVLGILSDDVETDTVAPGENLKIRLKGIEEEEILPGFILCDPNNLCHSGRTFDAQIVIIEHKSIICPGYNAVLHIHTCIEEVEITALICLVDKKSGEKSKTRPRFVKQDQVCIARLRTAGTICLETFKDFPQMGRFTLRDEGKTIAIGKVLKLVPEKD
T2 sequence (Q96SW2 whole entry): as the sequence (Q96SW2 whole entry) above
T2 sequence (Q16531 whole entry partner): as the sequence (Q16531 whole entry partner) above
The test can be described thus: GSPT1 degradation assay (Western blot, MV-4-11 cells). Particulars: MV4-11, 6-8 h. The procedure:
as §1, §2, §3, §4, §5

In a further test the test system is IL-1β. The experiment in a line: IL-1β inhibition assay, LPS-induced PBMCs / CD14+ monocytes (Meso Scale). Particulars: 1 h pretreatment, 100 ng/mL LPS 18-24 h. The procedure: (§6) Either frozen primary blood mononuclear cells (PBMCs) or frozen CD14+ mobilized peripheral blood monocytes were purchased from AllCells (PB003F, Normal Peripheral Blood MNC (Alameda, Calif.)). Cells were quick thawed, washed 1-time with RPMI-1640 (10% FBS/1% Pen-Strep) and plated in 96 well plates at 200,000 cells per well. Cells were pretreated with DMSO only or with the indicated compound for 1 h and then induced with 100 ng/mL lipopolysaccharide (LPS) for 18-24 h. The supernatant was analyzed for IL-1β, IL-6, and TNFα, using Meso Scale assay according to manufacturer's protocol. The negative control wells were treated with DMSO.
(§7) In Table 6, the % inhibition values are reported as “A”, “B”, “C”, or “D”. “A” represents a % inhibition value of less than 50% (value <50%). “B” represents a % inhibition value of equal to or more than 50% and less than 70% (50%≤value<70%). “C” represents a % inhibition value of equal to or more than 70% and less than 90% (70%≤value<90%). “D” represents a % inhibition value of equal or more than 90% (value ≥90%). In Table 7, the fold-change values are reported as “A”, “B”, “C”, or “D”. “A” represents a fold-change value of equal to or less than 0.1 (value ≤0.1). “B” represents a fold-change value of more than 0.1 and equal to or less than 0.5 (0.1<value≤0.5). “C” represents a fold-change value of more than 0.5 and equal to or less than 1 (0.5<value≤1). “D” represents a fold-change value of more than 1 (value >1).

For a further test, the system named is IL-6. The experiment in a line: IL-6 inhibition assay, LPS-induced PBMCs / CD14+ monocytes (Meso Scale). Particulars: 1 h pretreatment, 100 ng/mL LPS 18-24 h. The procedure: as §6, §7
The next test concerns TNF-α. The experiment in a line: TNF-α inhibition assay, LPS-induced PBMCs / CD14+ monocytes (Meso Scale). The following applies: 1 h pretreatment, 100 ng/mL LPS 18-24 h. The procedure:
as §6, §7

In a further test the test system is MOLM-13 cells. The test can be described thus: MOLM-13 cell viability assay (CellTiter-Glo). The following applies: Homo sapiens, MOLM-13, 72 h, 3 days, read-out: MOLM-13 Cell Viability % DMSO at 1 μM. A digest of the protocol: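 MOLM-13 cells at 2500 cells/well were exposed to compound for 3 days at 37 °C. Viability was read by CellTiter-Glo luminescence and expressed as % of DMSO control, binned A (<50%), B (50–<70%), C (70–<90%) or D (≥90%).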
For orientation: In ATP-based viability assays light output follows the ATP content of the culture.

The next test deals with T3, CDK9 (Homo sapiens, UniProt P50750).
T3 construct: Whole cell extracts were prepared using RIPA buffer; endogenous in cells; host or cells: MV-4-11
T3 sequence (P50750 whole entry): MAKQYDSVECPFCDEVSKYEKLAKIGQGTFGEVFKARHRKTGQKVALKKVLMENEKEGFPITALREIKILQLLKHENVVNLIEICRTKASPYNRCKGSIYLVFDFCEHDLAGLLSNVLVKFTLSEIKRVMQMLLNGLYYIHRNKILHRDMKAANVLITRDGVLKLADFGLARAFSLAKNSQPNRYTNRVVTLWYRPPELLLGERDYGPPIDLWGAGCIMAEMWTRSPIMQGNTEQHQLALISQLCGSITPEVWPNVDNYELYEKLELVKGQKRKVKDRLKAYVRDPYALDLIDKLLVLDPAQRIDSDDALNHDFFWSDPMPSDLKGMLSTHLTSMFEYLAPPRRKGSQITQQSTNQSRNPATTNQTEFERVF
The experiment in a line: CDK9 degradation assay (Western blot, MV-4-11 cells). Particulars: 6-8 h; for Dmax at 0.1 µM: MV4-11, 0.1 μM; for Dmax at 1 µM: MV4-11, 1 μM. The procedure:
as §1, §2, §3, §4, §5

The next test concerns the target T4, CDK16 (Homo sapiens, UniProt Q00536).
T4 construct: Whole cell extracts were prepared using RIPA buffer; endogenous in cells; host or cells: MV-4-11
The test can be described thus: CDK16 degradation assay (Western blot, MV-4-11 cells). The following applies: 6-8 h; for Dmax at 0.1 µM: MV4-11, 0.1 μM; for Dmax at 1 µM: MV4-11, 1 μM. How it is done:
as §1, §2, §3, §4, §5

The target in the next test is T5, CK1α (Homo sapiens, UniProt P48729+Q96SW2).
T5 construct: Whole cell extracts were prepared using RIPA buffer; endogenous in cells; host or cells: MV-4-11
T5 sequence (P48729 whole entry): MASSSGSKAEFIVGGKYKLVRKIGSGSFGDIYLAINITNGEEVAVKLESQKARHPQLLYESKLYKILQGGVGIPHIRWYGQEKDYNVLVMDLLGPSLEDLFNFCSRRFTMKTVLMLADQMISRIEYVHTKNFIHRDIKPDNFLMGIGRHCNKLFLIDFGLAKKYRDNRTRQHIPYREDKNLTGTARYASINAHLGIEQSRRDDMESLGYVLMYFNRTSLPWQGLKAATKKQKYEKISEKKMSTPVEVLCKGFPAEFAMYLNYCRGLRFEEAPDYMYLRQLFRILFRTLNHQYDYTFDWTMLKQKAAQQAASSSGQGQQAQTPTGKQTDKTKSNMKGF
T5 sequence (Q96SW2 whole entry): as the sequence (Q96SW2 whole entry) above
T5 sequence (Q16531 whole entry partner): as the sequence (Q16531 whole entry partner) above
The test can be described thus: CK1α degradation assay (Western blot, MV-4-11 cells). The following applies: MV4-11, 6-8 h. How it is done: as §1, §2, §3, §4, §5

T4 sequence (Q00536 whole entry): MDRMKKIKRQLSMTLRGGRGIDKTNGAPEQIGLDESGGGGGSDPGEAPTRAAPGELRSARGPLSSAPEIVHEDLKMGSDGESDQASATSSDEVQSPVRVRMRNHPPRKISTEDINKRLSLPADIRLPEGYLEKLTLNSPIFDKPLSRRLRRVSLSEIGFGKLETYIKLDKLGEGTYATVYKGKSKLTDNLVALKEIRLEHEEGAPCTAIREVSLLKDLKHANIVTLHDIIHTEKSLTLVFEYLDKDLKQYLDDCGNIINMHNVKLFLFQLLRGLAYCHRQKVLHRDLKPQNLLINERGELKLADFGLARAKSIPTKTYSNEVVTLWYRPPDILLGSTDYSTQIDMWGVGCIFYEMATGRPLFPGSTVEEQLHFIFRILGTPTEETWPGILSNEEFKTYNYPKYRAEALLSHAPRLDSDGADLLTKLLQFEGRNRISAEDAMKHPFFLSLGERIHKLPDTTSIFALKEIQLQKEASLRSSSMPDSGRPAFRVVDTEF

As for `Cn1ncc(-c2nc(N[C@H]3CC[C@H](NC(=O)CCCCCCNCC(=O)NCc4ccc(COc5cccc6c5CN(C5CCC(=O)NC5=O)C6=O)cc4)CC3)ncc2Cl)c1CC1CC1` (stereo partly shown) [Compound 8, N-((1r,4r)-4-((5-chloro-4-(5-(cyclopropylmethyl)-1-methyl-1H-pyrazol-4-yl)pyrimidin-2-yl)amino)cyclohexyl)-7-((2-((4-(((2-(2,6-dioxopiperidin-3-yl)-1-oxoisoindolin-4-yl)oxy)methyl)benzyl)amino)-2-oxoethyl)amino)heptanamide], the Dmax at 1 µM on IKAROS was 50 to 75%; at GSPT1 it was less than 25%. Besides, the inhibition at 1 µM with IL-1β, with IL-6 and with TNF-α was less than 50% each time. In the test on MOLM-13 cells, the viability at 1 µM lay within 70 to 90%.
For the compound `Cn1ncc(-c2nc(N[C@H]3CC[C@H](NCC(=O)NCCCCNCC(=O)NCc4cc5c(s4)C(=O)N(C4CCC(=O)NC4=O)C5)CC3)ncc2F)c1CC1CC1` (stereo partly shown) [Compound 29, 2-(((1r,4r)-4-((4-(5-(cyclopropylmethyl)-1-methyl-1H-pyrazol-4-yl)-5-fluoropyrimidin-2-yl)amino)cyclohexyl)amino)-N-(4-((2-(((5-(2,6-dioxopiperidin-3-yl)-6-oxo-5,6-dihydro-4H-thieno[2,3-c]pyrrol-2-yl)methyl)amino)-2-oxoethyl)amino)butyl)acetamide], the Dmax at 1 µM at IKAROS is 50 to 75%; on GSPT1, less than 25%; on CDK9, 50 to 75%; at CDK16, 50 to 75%. The maximal degradation (Dmax) at 0.1 µM at CDK9 and on CDK16 was 25 to 50% throughout. In addition, the viability at 1 µM in the test with MOLM-13 cells was more than 90%.
As for `Cn1ncc(-c2nc(N[C@H]3CC[C@H](NCCCCCCCCNC(=O)NCc4cc5c(s4)C(=O)N(C4CCC(=O)NC4=O)C5)CC3)ncc2Cl)c1CC1CC1` (stereo partly shown) [Compound 22, 1-(8-(((1r,4r)-4-((5-chloro-4-(5-(cyclopropylmethyl)-1-methyl-1H-pyrazol-4-yl)pyrimidin-2-yl)amino)cyclohexyl)amino)octyl)-3-((5-(2,6-dioxopiperidin-3-yl)-6-oxo-5,6-dihydro-4H-thieno[2,3-c]pyrrol-2-yl)methyl)urea], the Dmax at 1 µM on CK1α is less than 25%; on CDK9 it was not below 75%; at CDK16 it was 50 to 75%. Also, the Dmax at 0.1 µM on CDK9 is 50 to 75%; at CDK16, less than 25%. Moreover, the viability at 1 µM with MOLM-13 cells is more than 90%.
As for `CC(C)(C)c1cnc(CSc2cnc(NC(=O)C3CCN(CC(=O)NCCCCNCc4ccc(OCc5scc6c5CN([C@H]5CCC(=O)NC5=O)C6=O)cc4)CC3)s2)o1` (stereo in doubt) [Compound 54, N-(5-(((5-(tert-butyl)oxazol-2-yl)methyl)thio)thiazol-2-yl)-1-(2-((4-((4-((5-(2,6-dioxopiperidin-3-yl)-4-oxo-5,6-dihydro-4H-thieno[3,4-c]pyrrol-1-yl)methoxy)benzyl)amino)butyl)amino)-2-oxoethyl)piperidine-4-carboxamide], the Dmax at 1 µM on IKAROS and on CK1α was 50 to 75% each time. Moreover, the viability at 1 µM in the test on MOLM-13 cells was more than 90%.
As for `Cn1ncc(-c2nc(N[C@H]3CC[C@H](NCCOCCOCCOCCNCc4cc5c(s4)C(=O)N(C4CCC(=O)NC4=O)C5)CC3)ncc2Cl)c1CC1CC1` (stereo partly shown) [Compound 66, 3-(2-(13-(((1r,4r)-4-((5-chloro-4-(5-(cyclopropylmethyl)-1-methyl-1H-pyrazol-4-yl)pyrimidin-2-yl)amino)cyclohexyl)amino)-5,8,11-trioxa-2-azatridecyl)-6-oxo-4,6-dihydro-5H-thieno[2,3-c]pyrrol-5-yl)piperidine-2,6-dione], the Dmax at 1 µM on GSPT1 lay within 50 to 75%. Moreover, the inhibition at 1 µM in the test with IL-1β, with IL-6 and in the test with TNF-α was less than 50% in each case. The viability at 1 µM in the test on MOLM-13 cells was 50 to 70%.
On to `Cn1ncc(-c2nc(N[C@H]3CC[C@H](NCC(=O)NCCOCCOCCOCCNCC(=O)NCc4cc5c(s4)C(=O)N(C4CCC(=O)NC4=O)C5)CC3)ncc2Cl)c1CC1CC1` (stereo partly shown) [Compound 43, 14-(2-(((1r,4r)-4-((5-chloro-4-(5-(cyclopropylmethyl)-1-methyl-1H-pyrazol-4-yl)pyrimidin-2-yl)amino)cyclohexyl)amino)acetamido)-N-((5-(2,6-dioxopiperidin-3-yl)-6-oxo-5,6-dihydro-4H-thieno[2,3-c]pyrrol-2-yl)methyl)-6,9,12-trioxa-3-azatetradecanamide], for which, on GSPT1, the Dmax at 1 µM was 50 to 75%. For the same compound, the inhibition at 1 µM in the test on IL-1β, in the test with IL-6 and in the test on TNF-α was less than 50% each time. In addition, the viability at 1 µM in the test with MOLM-13 cells lay in the range of 50 to 70%.
Consider `Cn1ncc(-c2nc(N[C@H]3CC[C@H](NCC(=O)NCCCCCNCC(=O)NCc4scc5c4CN(C4CCC(=O)NC4=O)C5=O)CC3)ncc2F)c1CC1CC1` (stereo partly shown) [Compound 32, 2-(((1r,4r)-4-((4-(5-(cyclopropylmethyl)-1-methyl-1H-pyrazol-4-yl)-5-fluoropyrimidin-2-yl)amino)cyclohexyl)amino)-N-(5-((2-(((5-(2,6-dioxopiperidin-3-yl)-4-oxo-5,6-dihydro-4H-thieno[3,4-c]pyrrol-1-yl)methyl)amino)-2-oxoethyl)amino)pentyl)acetamide], for which the Dmax at 1 µM on IKAROS was 50 to 75%; on GSPT1, 25 to 50%; on CDK9 it was not below 75%; at CDK16 it was not below 75%. Further, the Dmax at 0.1 µM at CDK9 and at CDK16 was 50 to 75% throughout. Moreover, the viability at 1 µM with MOLM-13 cells is more than 90%.
Turning to `Cn1ncc(-c2nc(N[C@H]3CC[C@H](NCC(=O)NCCCCNCC(=O)NCc4scc5c4CN(C4CCC(=O)NC4=O)C5=O)CC3)ncc2Cl)c1CC1CC1` (stereo partly shown) [Compound 38, 2-(((1r,4r)-4-((5-chloro-4-(5-(cyclopropylmethyl)-1-methyl-1H-pyrazol-4-yl)pyrimidin-2-yl)amino)cyclohexyl)amino)-N-(4-((2-(((5-(2,6-dioxopiperidin-3-yl)-4-oxo-5,6-dihydro-4H-thieno[3,4-c]pyrrol-1-yl)methyl)amino)-2-oxoethyl)amino)butyl)acetamide], the Dmax at 1 µM on IKAROS was 25 to 50%; on GSPT1 it was 50 to 75%; at CDK9, not below 75%; on CDK16 it was not below 75%. In addition, the Dmax at 0.1 µM on CDK9 and at CDK16 was 50 to 75% throughout. Further, the viability at 1 µM with MOLM-13 cells was more than 90%.
